Measured values from PubChem BioAssay (NCI).
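Interpolation was linear, between the two tested concentrations surrounding the appropriate level; five concentrations were tested over 48 hours in 96-well plates. GI50 is the concentration that inhibits growth by half. Definition used: TGI = concentration required for complete inhibition of growth.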

Columns and labels:
Experiment in all cases: NCI-60 cell line screen, 48 h
[1] = system: IGROV1 ovarian
[2] = system: SW-620 colon
[3] = system: SK-MEL-5 melanoma
[4] = system: NCI-H226 lung
[5] = system: HCC-2998 colon
[6] = system: SK-MEL-28 melanoma
[7] = system: CCRF-CEM leukemia
[8] = system: BT-549 breast
[9] = system: U251 CNS
[10] = system: SF-295 CNS
[11] = system: NCI-H460 lung
[12] = system: UACC-257 melanoma
[13] = system: A549 NSCLC
[14] = system: HL-60(TB) leukemia
[15] = system: SN12C renal
[16] = system: RPMI-8226 leukemia
[17] = system: MDA-MB-435
[18] = system: SNB-19 CNS
[19] = system: UACC-62 melanoma
[20] = system: OVCAR-8 ovarian
[21] = system: MALME-3M melanoma
[22] = system: SF-268 CNS
[23] = system: NCI/ADR-RES ovarian
[24] = system: MDA-MB-231 breast
[25] = system: NCI-H522 lung
[26] = system: HOP-92 NSCLC
[27] = system: SNB-75 CNS
[28] = system: NCI-H23 lung
[29] = system: TK-10 renal
[30] = system: SR leukemia
[31] = system: DU-145 prostate
[32] = system: RXF 393 renal
[33] = system: EKVX NSCLC
[34] = system: M14 melanoma
[35] = system: SK-MEL-2 melanoma
[36] = system: 786-0 renal
[37] = system: SF-539 CNS
[38] = system: COLO 205 colon
[39] = system: HS 578T breast
[40] = system: MCF7 breast
[41] = system: KM12 colon
[42] = system: ACHN renal
[43] = system: UO-31 renal
[44] = system: T-47D breast
[45] = system: SK-OV-3 ovarian
[46] = system: LOX IMVI melanoma
[47] = system: OVCAR-3 ovarian
[48] = system: HOP-62 NSCLC
[49] = system: A498 renal
[50] = system: OVCAR-4 ovarian
[51] = system: HCT-116 colon
[52] = system: HT29 colon
[53] = system: PC-3 prostate
[54] = system: HCT-15 colon
[55] = system: OVCAR-5 ovarian

CC(=O)CC/C=C(\C)[C@H](O)[C@H](C)C(=O)O[C@H]1C[C@H](C)C=C2C=C[C@@]3(C)O[C@@H](O)CC(=O)[C@]3(C)[C@H]21
GI50 [1]: 0.42 µM | TGI [1]: 3.42 µM | GI50 [2]: 0.449 µM | TGI [2]: 9.03 µM | GI50 [3]: 0.598 µM | TGI [3]: 2.08 µM | GI50 [4]: 0.423 µM | TGI [4]: 4.6 µM | GI50 [5]: 0.394 µM | TGI [5]: 1.96 µM | GI50 [6]: 0.364 µM | TGI [6]: 2.18 µM | GI50 [7]: 0.514 µM | TGI [7]: 4.83 µM | GI50 [8]: 0.781 µM | TGI [8]: 3.76 µM | GI50 [9]: 0.384 µM | TGI [9]: 2.8 µM | GI50 [10]: 0.746 µM | TGI [10]: 6.51 µM | GI50 [11]: 0.379 µM | TGI [11]: 7.38 µM | GI50 [12]: 0.589 µM | TGI [12]: 4.48 µM | GI50 [13]: 1.24 µM | TGI [13]: 9.17 µM | GI50 [14]: 1.42 µM | TGI [14]: 4.22 µM | GI50 [15]: 0.324 µM | TGI [15]: 2.43 µM | GI50 [16]: 0.308 µM | TGI [16]: 2.25 µM | GI50 [17]: 0.508 µM | TGI [17]: 2.09 µM | GI50 [18]: 0.331 µM | TGI [18]: 2.49 µM | GI50 [19]: 0.618 µM | TGI [19]: 2.14 µM | GI50 [20]: 0.425 µM | TGI [20]: 6 µM | GI50 [21]: 0.588 µM | TGI [21]: 2.7 µM | GI50 [22]: 0.612 µM | TGI [22]: 5.63 µM | GI50 [23]: 1.44 µM | TGI [23]: 11.7 µM | GI50 [24]: 0.558 µM | TGI [24]: 3.07 µM | GI50 [25]: 0.566 µM | TGI [25]: 4.19 µM | GI50 [26]: 1.53 µM | TGI [26]: 7.06 µM | GI50 [27]: 0.686 µM | TGI [27]: 2.61 µM | GI50 [28]: 0.384 µM | TGI [28]: 2.44 µM | GI50 [29]: 0.942 µM | TGI [29]: 5.5 µM | GI50 [30]: 0.362 µM | TGI [30]: 12 µM | GI50 [31]: 0.332 µM | TGI [31]: 4.16 µM | GI50 [32]: 0.233 µM | TGI [32]: 0.867 µM | GI50 [33]: 0.877 µM | TGI [33]: 4.64 µM | GI50 [34]: 0.906 µM | TGI [34]: 2.38 µM | GI50 [35]: 0.419 µM | TGI [35]: 1.91 µM | GI50 [36]: 0.43 µM | TGI [36]: 3.29 µM | GI50 [37]: 0.366 µM | TGI [37]: 2.37 µM | GI50 [38]: 0.425 µM | TGI [38]: 2.03 µM | GI50 [39]: 0.492 µM | TGI [39]: 4.48 µM | GI50 [40]: 0.5 µM | TGI [40]: 6.19 µM | GI50 [41]: 0.308 µM | TGI [41]: 2.54 µM | GI50 [42]: 0.339 µM | TGI [42]: 2 µM | GI50 [43]: 0.383 µM | TGI [43]: 2.9 µM | GI50 [44]: 0.309 µM | TGI [44]: 2.54 µM | GI50 [45]: 1.26 µM | TGI [45]: 6.42 µM | GI50 [46]: 0.279 µM | TGI [46]: 1.69 µM | GI50 [47]: 0.614 µM | TGI [47]: 3.52 µM | GI50 [48]: 0.492 µM | TGI [48]: 3.63 µM | GI50 [49]: 2.55 µM | TGI [49]: 7.95 µM | GI50 [50]: 1.78 µM | TGI [50]: 6.05 µM | GI50 [51]: 0.307 µM | TGI [51]: 1.89 µM | GI50 [52]: 0.264 µM | TGI [52]: 1.37 µM | GI50 [53]: 0.61 µM | TGI [53]: 3.31 µM | GI50 [54]: 0.545 µM | TGI [54]: 7.95 µM | GI50 [55]: 1.04 µM | TGI [55]: 6.62 µM
